Measured values published in PubChem BioAssay AID192 (DTP/NCI, 2004).
Several values for one entry are separate records, joined by “and”; a condition that tells them apart may be missing. Equal values may be shown once. Toxic doses and inconclusive results are not listed. Rule for the calls: active = survival T/C of 150% or more; inactive = T/C below 125% in these data.

System: BDF1 mice, B16 melanoma ip, median survival T/C
Test: NCI In Vivo Anticancer Drug Screen. Data for tumor model B16 Melanoma (intraperitoneal) in B6D2F1 (BDF1) mice
Conditions: endpoint: median survival time, higher = longer survival
Method: The antitumor activity of compounds was measured in mice bearing transplantable tumors. Survival or tumor size were measured and the results are expressed as the measurement made in the treated group (T) divided by the measurement made in the vehicle treated control group (C). The tumor model used in this assay is B16 Melanoma (intraperitoneal) in B6D2F1 (BDF1) mice

[1] = dose: 6.25 mg/kg/injection, schedule: Q01DX009 (ip), vehicle: Klucel (hydroxypropylcellulose) (HPC)
[2] = dose: 12.5 mg/kg/injection, schedule: Q01DX009 (ip), vehicle: Klucel (hydroxypropylcellulose) (HPC)
[3] = dose: 25.0 mg/kg/injection, schedule: Q01DX009 (ip), vehicle: Klucel (hydroxypropylcellulose) (HPC)
[4] = dose: 50.0 mg/kg/injection, schedule: Q01DX009 (ip), vehicle: Klucel (hydroxypropylcellulose) (HPC)
[5] = dose: 50.0 mg/kg/injection, schedule: Q01DX009 (ip), vehicle: saline with Tween-80
[6] = dose: 400.0 mg/kg/injection, schedule: Q04DX003 (ip), vehicle: saline
[7] = dose: 100.0 mg/kg/injection, schedule: Q01DX009 (ip), vehicle: saline with Tween-80
[8] = dose: 200.0 mg/kg/injection, schedule: Q01DX009 (ip), vehicle: saline with Tween-80
[9] = dose: 200.0 mg/kg/injection, schedule: Q01DX009 (ip), vehicle: Klucel (hydroxypropylcellulose) (HPC)

Measured: T/C

CC(C)[C@]12O[C@H]1[C@@H]1O[C@]13[C@]1(O[C@H]1C[C@H]1C4=C(CC[C@@]13C)C(=O)OC4)[C@@H]2O
inactive: dose: 8.0 micrograms/kg/injection, schedule: Q01DX009 (ip), vehicle: saline + alcohol 114 % of control | dose: 12.5 micrograms/kg/injection, schedule: Q01DX009 (ip), vehicle: saline with Tween-80 119 % of control | dose: 16.0 micrograms/kg/injection, schedule: Q01DX009 (ip), vehicle: saline + alcohol 109 % of control | dose: 25.0 micrograms/kg/injection, schedule: Q01DX009 (ip), vehicle: saline with Tween-80 112 % of control | dose: 32.0 micrograms/kg/injection, schedule: Q01DX009 (ip), vehicle: saline + alcohol 104 % of control | dose: 50.0 micrograms/kg/injection, schedule: Q01DX009 (ip), vehicle: saline with Tween-80 124 % of control | dose: 64.0 micrograms/kg/injection, schedule: Q01DX009 (ip), vehicle: saline + alcohol 104 % of control | dose: 100.0 micrograms/kg/injection, schedule: Q01DX009 (ip), vehicle: saline with Tween-80 107 % of control | dose: 200.0 micrograms/kg/injection, schedule: Q01DX009 (ip), vehicle: saline with Tween-80 122 % of control | dose: 400.0 micrograms/kg/injection, schedule: Q01DX009 (ip), vehicle: saline with Tween-80 100 % of control

COc1ccc2c(c1)C13CCCCC1C(C2)N(CC1(c2ccccc2)CC1)CC3 (stereo not given)
inactive: dose: 4.1 mg/kg/injection, schedule: Q01DX009 (ip), vehicle: Klucel (hydroxypropylcellulose) (HPC) 93 % of control | [1] 93 % of control | dose: 9.3 mg/kg/injection, schedule: Q01DX009 (ip), vehicle: Klucel (hydroxypropylcellulose) (HPC) 93 % of control and 109 % of control | [2] 119 % of control | [3] 121 % of control | [4] 97 % of control

Cc1ccc(NC(=O)c2ccc(C(=O)Nc3ccc(C)cc3)cc2)cc1
inactive: dose: 12.5 mg/kg/injection, schedule: Q01DX009 (ip), vehicle: saline with Tween-80 117 % of control | dose: 25.0 mg/kg/injection, schedule: Q01DX009 (ip), vehicle: saline with Tween-80 93 % of control | [5] 100 % of control

CCCCC[C@H](O)/C=C/[C@H]1[C@H](O)CC(=O)[C@@H]1C/C=C\CCCC(=O)O
inactive: dose: 0.75 mg/kg/injection, schedule: Q04DX002 (ip), vehicle: Klucel (hydroxypropylcellulose) (HPC) 108 % of control | dose: 1.5 mg/kg/injection, schedule: Q04DX002 (ip), vehicle: Klucel (hydroxypropylcellulose) (HPC) 97 % of control | dose: 3.0 mg/kg/injection, schedule: Q04DX002 (ip), vehicle: Klucel (hydroxypropylcellulose) (HPC) 96 % of control | dose: 6.0 mg/kg/injection, schedule: Q04DX002 (ip), vehicle: Klucel (hydroxypropylcellulose) (HPC) 92 % of control | dose: 12.5 mg/kg/injection, schedule: Q04DX002 (ip), vehicle: other 96 % of control | dose: 24.0 mg/kg/injection, schedule: Q04DX002 (ip), vehicle: Klucel (hydroxypropylcellulose) (HPC) 103 % of control | dose: 25.0 mg/kg/injection, schedule: Q04DX002 (ip), vehicle: other 91 % of control | dose: 100.0 mg/kg/injection, schedule: Q04DX002 (ip), vehicle: other 96 % of control | dose: 200.0 mg/kg/injection, schedule: Q04DX002 (ip), vehicle: other 96 % of control

Cc1cc(OCc2nc(N)nc(N)c2-c2ccc(Cl)c(Cl)c2)ccc1NS(=O)(=O)c1cccc(S(=O)(=O)F)c1
inactive: dose: 117.0 mg/kg/injection, schedule: Q04DX003 (ip), vehicle: saline 122 % of control | [6] 117 % of control

O=C1C(=O)c2ccccc2C(O)=C1CC=C(Cl)Cl
inactive: dose: 6.2 mg/kg/injection, schedule: Q01DX009 (ip), vehicle: water 93 % of control | dose: 12.5 mg/kg/injection, schedule: Q01DX009 (ip), vehicle: saline 100 % of control | dose: 12.5 mg/kg/injection, schedule: Q01DX009 (ip), vehicle: water 93 % of control | dose: 25.0 mg/kg/injection, schedule: Q01DX009 (ip), vehicle: saline 102 % of control | dose: 25.0 mg/kg/injection, schedule: Q01DX009 (ip), vehicle: water 100 % of control | dose: 25.0 mg/kg/injection, schedule: Q01DX009 (oral), vehicle: water 103 % of control and 106 % of control | dose: 50.0 mg/kg/injection, schedule: Q01DX009 (ip), vehicle: saline 100 % of control | dose: 50.0 mg/kg/injection, schedule: Q01DX009 (ip), vehicle: water 100 % of control | dose: 50.0 mg/kg/injection, schedule: Q01DX009 (oral), vehicle: saline 105 % of control | dose: 50.0 mg/kg/injection, schedule: Q01DX009 (oral), vehicle: water 106 % of control | dose: 75.0 mg/kg/injection, schedule: Q01DX009 (oral), vehicle: water 110 % of control | dose: 100.0 mg/kg/injection, schedule: Q01DX009 (oral), vehicle: saline 116 % of control | dose: 100.0 mg/kg/injection, schedule: Q01DX009 (oral), vehicle: water 106 % of control and 113 % of control | dose: 200.0 mg/kg/injection, schedule: Q01DX009 (oral), vehicle: water 106 % of control

O=C1CCCC2C1C1(O)CCC2(O)c2cccc(O)c21 (stereo not given)
inactive: dose: 1.56 mg/kg/injection, schedule: Q01DX009 (ip), vehicle: saline 90 % of control | dose: 3.12 mg/kg/injection, schedule: Q01DX009 (ip), vehicle: saline 95 % of control | dose: 3.12 mg/kg/injection, schedule: Q04DX003 (ip), vehicle: saline 93 % of control | dose: 6.25 mg/kg/injection, schedule: Q01DX009 (ip), vehicle: saline 93 % of control | dose: 6.25 mg/kg/injection, schedule: Q04DX003 (ip), vehicle: saline 91 % of control | [2] 95 % of control | dose: 12.5 mg/kg/injection, schedule: Q04DX003 (ip), vehicle: saline 91 % of control | dose: 18.0 mg/kg/injection, schedule: Q04DX003 (ip), vehicle: saline 105 % of control | dose: 28.0 mg/kg/injection, schedule: Q04DX003 (ip), vehicle: saline 103 % of control

FC(F)(F)C(F)(Cl)C(Cl)(Cl)C(F)(F)F (stereo not given)
inactive: dose: 100.0 mg/kg/injection, schedule: Q04DX003 (ip), vehicle: saline 92 % of control | dose: 200.0 mg/kg/injection, schedule: Q04DX003 (ip), vehicle: saline 104 % of control | [6] 97 % of control

O=C(Nc1ccc(Cl)cc1)c1cccnc1
inactive: [5] 101 % of control | [7] 106 % of control | [8] 94 % of control

O=[N+]([O-])c1cc2c(c([N+](=O)[O-])c1)OCOC2
inactive: [9] 100 % of control

CCCCCC(=O)c1ccc(OCCCN2CCN(C(=O)OCC)CC2)cc1
inactive: [7] 98 % of control | [8] 87 % of control

Nc1nc([Se])c2ncn(C3CC(O)C(CO)O3)c2n1 (stereo not given)
inactive: [1] 105 % of control | [2] 124 % of control | [3] 122 % of control | [4] 111 % of control

Nc1ccc2nc3ccc(N)cc3[n+](-c3ccccc3)c2c1
inactive: dose: 3.75 mg/kg/injection, schedule: Q01DX009 (ip), vehicle: saline with Tween-80 97 % of control | dose: 7.5 mg/kg/injection, schedule: Q01DX009 (ip), vehicle: saline with Tween-80 102 % of control | dose: 10.0 mg/kg/injection, schedule: Q04DX003 (ip), vehicle: saline with Tween-80 100 % of control | dose: 15.0 mg/kg/injection, schedule: Q01DX009 (ip), vehicle: saline with Tween-80 102 % of control | dose: 20.0 mg/kg/injection, schedule: Q04DX003 (ip), vehicle: saline with Tween-80 107 % of control | dose: 30.0 mg/kg/injection, schedule: Q01DX009 (ip), vehicle: saline with Tween-80 118 % of control | dose: 40.0 mg/kg/injection, schedule: Q04DX003 (ip), vehicle: saline with Tween-80 100 % of control

CCCCC(CC)COC(=O)/C=C/C(=O)OCC(CC)CCCC (stereo not given)
inactive: [9] 90 % of control | dose: 400.0 mg/kg/injection, schedule: Q01DX009 (ip), vehicle: Klucel (hydroxypropylcellulose) (HPC) 87 % of control

Cc1ccc(S(=O)(=O)N/N=C/c2ccccc2)cc1
inactive: dose: 50.0 mg/kg/injection, schedule: Q01DX009 (ip), vehicle: other 104 % of control | dose: 100.0 mg/kg/injection, schedule: Q01DX009 (ip), vehicle: other 110 % of control | dose: 200.0 mg/kg/injection, schedule: Q01DX009 (ip), vehicle: other 103 % of control | dose: 400.0 mg/kg/injection, schedule: Q01DX009 (ip), vehicle: other 106 % of control

Oc1ccccc1/C=N/NC(=S)NC1CC2C=CC1C2 (stereo not given)
inactive: dose: 50.0 mg/kg/injection, schedule: Q01DX009 (ip), vehicle: olive oil, sesame oil, peanut oil 88 % of control
